Data on one compound can be found in US9676734B2, “Compounds and methods” (VIRONOVA INFLUENZA AB, priority 2012, dated 2017).

The data set has as its system Caco2. The data set can be described thus: Caco2 permeability assay. It counts as in vitro ADME. The settings on record: relative to Nucleozin. As to the method: A Caco2 permeability assay was performed using the inventive compound VNFC 0009 as well as Nucleozin.

For `Cc1onc(-c2ccccc2)c1C(=S)N1CCN(c2ccc([N+](=O)[O-])cc2Cl)CC1` [VNFC 0009, (4-(2-chloro-4-nitrophenyl)piperazin-1-yl)(5-methyl-3-phenylisoxazol-4-yl)methanethione], for the setting “apical to basal”, the “Caco2 permeability in the apical to basal direction, higher than that of Nucleozin” value is on record as “about 30%”. Also, the “basal to apical Caco2 permeability, times lower than that of Nucleozin” value (basal to apical) was ~7 times.
